Results reported in US7256185B1, “Control of selective estrogen receptor modulators” (Eastern Virginia Medical School, priority 1997, dated 2007).
Like-named read-outs stand apart in the source and are kept apart here.

Method: 1. Clomiphene is used alone at 100 mg/day for the treatment of endometriosis. […] Levonorgestrel at 75 mcg/day is then also administered.
2. Raloxifene at 500 mg/day and medroxprogesterone acetate at 12 mg/day were administrated to treat leiomyoma.
5. Clomiphene is used alone at 100 mg/day for the treatment of endometriosis. […] Danazol at 100 to 800 mg/day is then also administered.

[1] = clomiphene ZU isomer 50 mg/day and norgestimate 100 mcg/day coadministered
[2] = raloxifene 500 mg/day and medroxprogesterone acetate 12 mg/day administered together, leiomyoma

In the case of `C#C[C@]1(OC(C)=O)CC[C@H]2[C@@H]3CCC4=CC(=NO)CC[C@@H]4[C@H]3CC[C@@]21CC` (mixture of isomers) [norgestimate], the serum estrogen [1] is reported as “remained at physiological levels”.
With `CCN(CC)CCOc1ccc(/C(=C(\Cl)c2ccccc2)c2ccccc2)cc1` (single isomer, unassigned) [Clomiphene ZU isomer] the serum estrogen [1] was “remained at physiological levels”.
In the case of `C#C[C@]1(O)CC[C@H]2[C@@H]3CCC4=Cc5oncc5C[C@]4(C)[C@H]3CC[C@@]21C` [Danazol, danazol], the serum estrogen (danazol 100 to 800 mg/day added to clomiphene 100 mg/day after serum estrogen reached 500 pg/ml, endometriosis) is reported as “retreated to physiological value”.
With `O=C(c1ccc(OCCN2CCCCC2)cc1)c1c(-c2ccc(O)cc2)sc2cc(O)ccc12` [Raloxifene] the serum estrogen [2] was “remained at physiological levels”.
For `CC(=O)O[C@]1(C(C)=O)CC[C@H]2[C@@H]3C[C@H](C)C4=CC(=O)CC[C@]4(C)[C@H]3CC[C@@]21C` [medroxprogesterone acetate], the serum estrogen [2] was “remained at physiological levels”.
